The record followed here is patent US11766420B2 (priority 2015, dated 2023).

The subject of the series is HEK293T cells. As to conditions: human.

A value given as a limit tells only on which side of the number the result lay.

On to `COc1ncc(-c2ccc3nc(N)n(-c4ccc(N5CCOCC5)cc4)c3c2)cc1S(=O)(=O)Nc1ccccc1F` [A1, 5-(2-amino-1-(4-(4-morpholinyl)phenyl)-1H-benzimidazol-6-yl)-N-(2-fluorophenyl)-2-methoxy-3-pyridinesulfonamide], for which the “Concentration that killed most of the cells (MTT)” value was at least 250 nM.
